In patent US11667630B2, “Nitrogen-containing 6-membered cyclic compound” (Asahi Kasei Pharma Corporation, priority 2017, dated 2023):

System: rat femur closed fracture model
Experiment: Fracture healing-promoting action in rat femur closed fracture model
Type: in vivo
Settings: SD rats; for Bone union rate after 25 days (%): judged on soft X-ray images; for Maximum torque (N · cm): torsion test of femur four weeks after fracture
Description: In order to investigate fracture healing-promoting action of the compounds of the present invention, influence of injection of microspheres containing a test compound at a fracture site of a rat femur closed fracture model was confirmed.
Thirteen weeks old female SD rats (Japan SLC) were fixed in the side lying position under triple anesthesia (medetomidine hydrochloride, midazolam, and butorphanol tartrate). After hair of a region from the left knee to the femoral region was shaved with a hair clipper, and disinfection treatment was performed with povidone-iodine listed in Japanese Pharmacopoeia (Isodine solution for animals, 20 mg of povidone-iodine listed in Japanese Pharmacopoeia in 1 mL, Meiji Seika Pharma), the skin of the knee part and the medial great muscle of the lateral part of the patella were excised, and the patella was shifted from the femoral head. A drill bit attached to a trephine was put on the intercondylar fossa of the exposed femoral head, and manually rotated to make a bore. A Kirschner wire (Mizuho Co., Ltd.) having a diameter of 1.2 mm preliminarily cut in a length of 31 mm was inserted into the medullary cavity of the femur through the bore. Then, the left femoral region was fixed on a three-point bending test jig of a small desktop universal testing machine (EZ Test, Shimadzu Corp.), and closed fracture of the femoral diaphyseal was caused by giving a dynamic load. Whether fracture was successfully introduced or not was confirmed by confirming generation of a complete transverse fracture in the femoral diaphyseal on an X-ray image obtained with a soft X-ray generator (M-100W, Softex) and a digital X-ray sensor (NX-04, RF Co., Ltd.). A microsphere suspension obtained by suspending microspheres (prepared according to the method of Preparation Example 3) containing a test compound (compound of Example 23) in a CMC solution was injected into the fracture part in a volume of 100 μL as the administration volume (containing 100 or 300 μg of the test compound). As the control group, a drug liquid obtained by suspending the microspheres not containing the aforementioned test compound in the CMC solution (100 μL) alone was administered. One, two, and three weeks after the generation of fracture, soft X-ray images were taken under isoflurane anesthesia, and the areas of the callus part in the X-ray images were quantified by using Image J. Four weeks after the generation of fracture, soft X-ray images were taken under triple anesthesia, the animals were fixed in the supine position, and euthanized by bleeding, and the left femurs were extracted. […] The femur samples were cryopreserved until implementation of a bone strength test, and torsional strength was measured on the test day by using a bone strength measurement apparatus (MZ-500S, Maruto Instrument Co., Ltd.).

[1] = microspheres (Preparation Example 3) containing compound of Example 23, 100 μg injected into fracture part
[2] = microspheres (Preparation Example 3) containing compound of Example 23, 300 μg injected into fracture part
[3] = microspheres containing compound of Example 23, 100 μg
[4] = microspheres containing compound of Example 23, 300 μg

## O=C(O)c1ccc(CCN2C(=O)SCCN2CC[C@@H](O)Cc2cccc(C#Cc3ccsc3)c2)s1 [Example 23, (S)-5-(2-(4-(3-Hydroxy-4-(3-(thiophen-3-ylethynyl)phenyl)butyl)-2-oxo-1,3,4-thiadiazinan-3-yl)ethyl)thiophene-2-carboxylic acid]
[1]
  Callus area (mm^2) One week after fracture: 5.24 ± 2.87 mm^2
  Callus area (mm^2) Three weeks after fracture: 35.9 ± 6.3 mm^2
  Callus area (mm^2) Two weeks after fracture: 28.6 ± 4.7 mm^2
[2]
  Callus area (mm^2) One week after fracture: 6.01 ± 2.75 mm^2
  Callus area (mm^2) Three weeks after fracture: 33.8 ± 6.8 mm^2
  Callus area (mm^2) Two weeks after fracture: 28.9 ± 3.8 mm^2
[3]
  Bone union rate after 25 days (%): 90.0%
  Maximum torque (N · cm): 20.4 ± 7.1 N · cm
[4]
  Bone union rate after 25 days (%): 85.7%
  Maximum torque (N · cm): 26.3 ± 11.7 N · cm
